Assay results taken from ChEMBL document CHEMBL2150967, “Novel Quinolinones as Activators of AMP Activated Protein Kinase: Patent Highlight” (ACS Med Chem Lett, 2012).

Legend:
[1] = target: AMP-activated protein kinase, AMPK; assay: (§1) Activation of recombinant human AMPK by FRET assay
[2] = target: AMP-activated protein kinase, AMPK (Homo sapiens) (UniProt P54646+O43741+P54619+Q9UGJ0+Q9Y478+Q13131+Q9UGI9); assay: as §1

Row | Compound | pEC50 [1] | pEC200 [2]
1 | Cc1ccn(-c2c(O)c3cc(-c4ccc(N5CCCC5)cc4)c(Cl)cc3[nH]c2=O)n1 | < 5.5 | < 5
2 | Cc1nc(-c2c(O)c3cc(-c4ccc(N(C)C)cc4)c(Cl)cc3[nH]c2=O)c(C)s1 | < 5.5 | < 5
3 | Cc1nc(-c2c(O)c3cc(-c4ccc(N5CCCCC5)cc4)c(Cl)cc3[nH]c2=O)cs1 | < 5.5 | < 5

Next, values leading:

Row | pEC50 [1] | pEC200 [2] | Compound
4 | < 5.5 | < 5 | COc1cccc(-c2ccc(-c3cc4c(O)c(-n5cccn5)c(=O)[nH]c4cc3Cl)cc2)c1
5 | < 5.5 | < 5 | Cc1cc(-c2c(O)c3cc(-c4ccc(N(C)C)cc4)c(Cl)cc3[nH]c2=O)no1
